# Test results reported in PubChem BioAssay (NCI).
#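 Compound exposure: 48 hours, 5 concentrations, 96-well plates. The concentration for 50% growth inhibition is given as GI50. TGI denotes the concentration required for complete inhibition of growth.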
# Assays:
# Assay in all cases: NCI tumour cell line growth inhibition, 48 h
# 786-0 renal = test system: 786-0 renal
# A498 renal = test system: A498 renal
# A549 NSCLC = test system: A549 NSCLC
# ACHN renal = test system: ACHN renal
# BT-549 breast = test system: BT-549 breast
# CAKI-1 renal = test system: CAKI-1 renal
# CCRF-CEM leukemia = test system: CCRF-CEM leukemia
# COLO 205 colon = test system: COLO 205 colon
# DU-145 prostate = test system: DU-145 prostate
# EKVX NSCLC = test system: EKVX NSCLC
# HCC-2998 colon = test system: HCC-2998 colon
# HCT-116 colon = test system: HCT-116 colon
# HCT-15 colon = test system: HCT-15 colon
# HL-60(TB) leukemia = test system: HL-60(TB) leukemia
# HOP-62 NSCLC = test system: HOP-62 NSCLC
# HOP-92 NSCLC = test system: HOP-92 NSCLC
# HS 578T breast = test system: HS 578T breast
# HT29 colon = test system: HT29 colon
# IGROV1 ovarian = test system: IGROV1 ovarian
# K-562 leukemia = test system: K-562 leukemia
# KM12 colon = test system: KM12 colon
# LOX IMVI melanoma = test system: LOX IMVI melanoma
# M14 melanoma = test system: M14 melanoma
# MALME-3M melanoma = test system: MALME-3M melanoma
# MCF7 breast = test system: MCF7 breast
# MDA-MB-231 breast = test system: MDA-MB-231 breast
# MDA-MB-435 = test system: MDA-MB-435
# MOLT-4 leukemia = test system: MOLT-4 leukemia
# NCI-H226 lung = test system: NCI-H226 lung
# NCI-H23 lung = test system: NCI-H23 lung
# NCI-H460 lung = test system: NCI-H460 lung
# NCI-H522 lung = test system: NCI-H522 lung
# NCI/ADR-RES ovarian = test system: NCI/ADR-RES ovarian
# OVCAR-4 ovarian = test system: OVCAR-4 ovarian
# OVCAR-5 ovarian = test system: OVCAR-5 ovarian
# OVCAR-8 ovarian = test system: OVCAR-8 ovarian
# PC-3 prostate = test system: PC-3 prostate
# RPMI-8226 leukemia = test system: RPMI-8226 leukemia
# RXF 393 renal = test system: RXF 393 renal
# SF-268 CNS = test system: SF-268 CNS
# SF-295 CNS = test system: SF-295 CNS
# SF-539 CNS = test system: SF-539 CNS
# SK-MEL-2 melanoma = test system: SK-MEL-2 melanoma
# SK-MEL-28 melanoma = test system: SK-MEL-28 melanoma
# SK-MEL-5 melanoma = test system: SK-MEL-5 melanoma
# SK-OV-3 ovarian = test system: SK-OV-3 ovarian
# SN12C renal = test system: SN12C renal
# SNB-19 CNS = test system: SNB-19 CNS
# SNB-75 CNS = test system: SNB-75 CNS
# SR leukemia = test system: SR leukemia
# SW-620 colon = test system: SW-620 colon
# T-47D breast = test system: T-47D breast
# TK-10 renal = test system: TK-10 renal
# U251 CNS = test system: U251 CNS
# UACC-257 melanoma = test system: UACC-257 melanoma
# UACC-62 melanoma = test system: UACC-62 melanoma
# UO-31 renal = test system: UO-31 renal
structure (smiles),measurement,setting,value
CSc1ccc(/C(=N/N=C(N)N)c2ccccc2)cc1,GI50,786-0 renal,924 nM
same,TGI,786-0 renal,15800 nM
same,GI50,A498 renal,319 nM
same,TGI,A498 renal,1660 nM
same,GI50,A549 NSCLC,984 nM
same,TGI,A549 NSCLC,14200 nM
same,GI50,ACHN renal,695 nM
same,TGI,ACHN renal,12600 nM
same,GI50,BT-549 breast,650 nM
same,TGI,BT-549 breast,3180 nM
same,GI50,CAKI-1 renal,423 nM
same,TGI,CAKI-1 renal,10900 nM
same,GI50,CCRF-CEM leukemia,357 nM
same,TGI,CCRF-CEM leukemia,19200 nM
same,GI50,COLO 205 colon,235 nM
same,TGI,COLO 205 colon,549 nM
same,GI50,DU-145 prostate,471 nM
same,TGI,DU-145 prostate,13300 nM
same,GI50,EKVX NSCLC,779 nM
same,TGI,EKVX NSCLC,18100 nM
same,GI50,HCC-2998 colon,371 nM
same,TGI,HCC-2998 colon,1570 nM
same,GI50,HCT-116 colon,330 nM
same,TGI,HCT-116 colon,11400 nM
same,GI50,HCT-15 colon,377 nM
same,TGI,HCT-15 colon,12000 nM
same,GI50,HL-60(TB) leukemia,274 nM
same,TGI,HL-60(TB) leukemia,883 nM
same,GI50,HOP-62 NSCLC,481 nM
same,TGI,HOP-62 NSCLC,13000 nM
same,GI50,HOP-92 NSCLC,409 nM
same,TGI,HOP-92 NSCLC,5320 nM
same,GI50,HS 578T breast,359 nM
same,TGI,HS 578T breast,12900 nM
same,GI50,HT29 colon,301 nM
same,TGI,HT29 colon,2880 nM
same,GI50,IGROV1 ovarian,563 nM
same,TGI,IGROV1 ovarian,12200 nM
same,GI50,K-562 leukemia,314 nM
same,TGI,K-562 leukemia,11500 nM
same,GI50,KM12 colon,451 nM
same,TGI,KM12 colon,14200 nM
same,GI50,LOX IMVI melanoma,520 nM
same,TGI,LOX IMVI melanoma,8780 nM
same,GI50,M14 melanoma,308 nM
same,TGI,M14 melanoma,1420 nM
same,GI50,MALME-3M melanoma,719 nM
same,TGI,MALME-3M melanoma,13500 nM
same,GI50,MCF7 breast,357 nM
same,TGI,MCF7 breast,9460 nM
same,GI50,MDA-MB-231 breast,498 nM
same,TGI,MDA-MB-231 breast,11800 nM
same,GI50,MDA-MB-435,207 nM
same,TGI,MDA-MB-435,478 nM
same,GI50,MOLT-4 leukemia,462 nM
same,TGI,MOLT-4 leukemia,13400 nM
same,GI50,NCI-H226 lung,848 nM
same,TGI,NCI-H226 lung,18600 nM
same,GI50,NCI-H23 lung,591 nM
same,TGI,NCI-H23 lung,14900 nM
same,GI50,NCI-H460 lung,361 nM
same,TGI,NCI-H460 lung,10700 nM
same,GI50,NCI-H522 lung,267 nM
same,TGI,NCI-H522 lung,996 nM
same,GI50,NCI/ADR-RES ovarian,1870 nM
same,TGI,NCI/ADR-RES ovarian,11000 nM
same,GI50,OVCAR-4 ovarian,5290 nM
same,TGI,OVCAR-4 ovarian,27200 nM
same,GI50,OVCAR-5 ovarian,571 nM
same,TGI,OVCAR-5 ovarian,15400 nM
same,GI50,OVCAR-8 ovarian,422 nM
same,TGI,OVCAR-8 ovarian,11200 nM
same,GI50,PC-3 prostate,383 nM
same,TGI,PC-3 prostate,10900 nM
same,GI50,RPMI-8226 leukemia,391 nM
same,TGI,RPMI-8226 leukemia,5460 nM
same,GI50,RXF 393 renal,282 nM
same,TGI,RXF 393 renal,781 nM
same,GI50,SF-268 CNS,1290 nM
same,TGI,SF-268 CNS,16100 nM
same,GI50,SF-295 CNS,350 nM
same,TGI,SF-295 CNS,11500 nM
same,GI50,SF-539 CNS,301 nM
same,TGI,SF-539 CNS,931 nM
same,GI50,SK-MEL-2 melanoma,391 nM
same,TGI,SK-MEL-2 melanoma,12700 nM
same,GI50,SK-MEL-28 melanoma,1070 nM
same,TGI,SK-MEL-28 melanoma,20000 nM
same,GI50,SK-MEL-5 melanoma,609 nM
same,TGI,SK-MEL-5 melanoma,2850 nM
same,GI50,SK-OV-3 ovarian,605 nM
same,TGI,SK-OV-3 ovarian,15100 nM
same,GI50,SN12C renal,536 nM
same,TGI,SN12C renal,12500 nM
same,GI50,SNB-19 CNS,439 nM
same,TGI,SNB-19 CNS,14000 nM
same,GI50,SNB-75 CNS,310 nM
same,TGI,SNB-75 CNS,3270 nM
same,GI50,SR leukemia,247 nM
same,TGI,SR leukemia,2580 nM
same,GI50,SW-620 colon,435 nM
same,TGI,SW-620 colon,15600 nM
same,GI50,T-47D breast,535 nM
same,TGI,T-47D breast,15100 nM
same,GI50,TK-10 renal,4430 nM
same,TGI,TK-10 renal,20400 nM
same,GI50,U251 CNS,393 nM
same,TGI,U251 CNS,11300 nM
same,GI50,UACC-257 melanoma,1080 nM
same,TGI,UACC-257 melanoma,11800 nM
same,GI50,UACC-62 melanoma,473 nM
same,TGI,UACC-62 melanoma,15000 nM
same,GI50,UO-31 renal,747 nM
same,TGI,UO-31 renal,12600 nM
C=C(C=O)[C@@H]1CC[C@]2(C)[C@H](C(=O)C=C3[C@H]4C[C@](C)(C(=O)OC)CC[C@]4(C)CC[C@]32C)[C@@]1(C)CCC#N,GI50,CCRF-CEM leukemia,483 nM
same,TGI,CCRF-CEM leukemia,> 100000 nM
same,GI50,HL-60(TB) leukemia,1720 nM
same,TGI,HL-60(TB) leukemia,5930 nM
same,GI50,HT29 colon,1120 nM
same,TGI,HT29 colon,2870 nM
same,GI50,K-562 leukemia,1810 nM
same,TGI,K-562 leukemia,> 100000 nM
same,GI50,LOX IMVI melanoma,1340 nM
same,TGI,LOX IMVI melanoma,2700 nM
same,GI50,MOLT-4 leukemia,985 nM
same,TGI,MOLT-4 leukemia,> 100000 nM
same,GI50,NCI/ADR-RES ovarian,1880 nM
same,TGI,NCI/ADR-RES ovarian,5920 nM
same,GI50,RPMI-8226 leukemia,942 nM
same,TGI,RPMI-8226 leukemia,5040 nM
same,GI50,SR leukemia,1020 nM
same,TGI,SR leukemia,> 100000 nM
same,GI50,T-47D breast,899 nM
same,TGI,T-47D breast,> 100000 nM
